From ChEMBL document CHEMBL2073784, “Involvement of organic anion transporting polypeptides in the transport of troglitazone sulfate: implications for understanding troglitazone hepatotoxicity” (Drug Metab Dispos, 2004)
Where a name gives a salt, the structure may show the parent alone.

Columns and labels:
[1] = molecular target: T1, OATP-C (OATP1B1, SLCO1B1) (Homo sapiens, UniProt Q9Y6L6); assay: TP_TRANSPORTER: inhibition of estrone-3-sulfate uptake (Estrone-3-sulfate: 9.2 nM) by Troglitazone at a concentration of 10uM in OATP-C-expressing Xenopus oocytes; type: functional, cell-based, Oocyte; conditions: xenopus laevis, probe estrone-3-sulfate
T1 sequence (Q9Y6L6 whole entry): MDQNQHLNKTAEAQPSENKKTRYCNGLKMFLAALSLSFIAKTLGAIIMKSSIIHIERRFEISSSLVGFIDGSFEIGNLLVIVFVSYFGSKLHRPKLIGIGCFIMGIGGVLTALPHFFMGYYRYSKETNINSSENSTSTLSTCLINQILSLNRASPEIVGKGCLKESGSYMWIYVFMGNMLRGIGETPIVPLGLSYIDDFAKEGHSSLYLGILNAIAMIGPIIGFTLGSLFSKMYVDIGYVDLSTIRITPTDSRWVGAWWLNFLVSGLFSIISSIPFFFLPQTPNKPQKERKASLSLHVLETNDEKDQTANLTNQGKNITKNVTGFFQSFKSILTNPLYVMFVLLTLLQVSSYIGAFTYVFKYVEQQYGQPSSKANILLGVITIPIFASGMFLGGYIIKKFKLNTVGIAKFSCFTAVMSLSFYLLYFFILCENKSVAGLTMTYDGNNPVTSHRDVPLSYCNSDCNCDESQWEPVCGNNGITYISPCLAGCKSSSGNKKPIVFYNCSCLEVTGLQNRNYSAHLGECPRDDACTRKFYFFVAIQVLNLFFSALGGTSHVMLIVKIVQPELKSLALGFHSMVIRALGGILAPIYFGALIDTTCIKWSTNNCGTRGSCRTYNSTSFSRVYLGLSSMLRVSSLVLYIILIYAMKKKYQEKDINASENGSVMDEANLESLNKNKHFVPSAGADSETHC

OATP1B1 (SLCO1B1) [2] = molecular target: T2, OATP1B1 (SLCO1B1) (Homo sapiens, UniProt Q9Y6L6); assay: TP_TRANSPORTER: inhibition of Estrone-3-sulfate uptake(Estrone-3-sulfate: 9.2nM) in Xenopus laevis oocytes; type: functional, cell-based, Oocyte; design: scale not given: the % may be the effect or the level left; conditions: probe estrone-3-sulfate
T2 sequence (Q9Y6L6 whole entry): T1 sequence (Q9Y6L6 whole entry)

[3] = molecular target: T3, Solute carrier organic anion transporter family member 1B3 (Homo sapiens, UniProt Q9NPD5); assay: TP_TRANSPORTER: uptake of SN-38 at a concentration of 0.09uL/oocyte in Xenopus laevis oocytes; type: functional, cell-based
T3 sequence (Q9NPD5 whole entry): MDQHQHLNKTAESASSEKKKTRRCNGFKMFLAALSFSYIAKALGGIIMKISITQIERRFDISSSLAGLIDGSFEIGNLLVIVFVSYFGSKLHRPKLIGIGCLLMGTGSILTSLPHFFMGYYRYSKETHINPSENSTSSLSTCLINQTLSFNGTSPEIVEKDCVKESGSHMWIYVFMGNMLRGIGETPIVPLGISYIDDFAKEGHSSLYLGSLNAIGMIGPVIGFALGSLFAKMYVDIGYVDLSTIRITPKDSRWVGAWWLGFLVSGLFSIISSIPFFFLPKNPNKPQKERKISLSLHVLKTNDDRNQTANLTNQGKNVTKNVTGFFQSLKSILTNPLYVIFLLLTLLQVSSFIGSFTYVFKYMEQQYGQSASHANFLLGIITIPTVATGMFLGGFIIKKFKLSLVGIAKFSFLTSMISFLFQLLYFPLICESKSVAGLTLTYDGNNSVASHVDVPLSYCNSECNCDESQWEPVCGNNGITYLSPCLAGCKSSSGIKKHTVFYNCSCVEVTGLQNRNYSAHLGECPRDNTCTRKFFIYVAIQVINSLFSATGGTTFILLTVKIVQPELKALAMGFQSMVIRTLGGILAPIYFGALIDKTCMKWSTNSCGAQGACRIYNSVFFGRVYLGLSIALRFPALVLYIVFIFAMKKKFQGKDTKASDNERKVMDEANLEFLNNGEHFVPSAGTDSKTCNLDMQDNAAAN

[4] = molecular target: T4, Solute carrier organic anion transporter family member 1B1 (Homo sapiens, UniProt Q9Y6L6); assay: TP_TRANSPORTER: uptake in OATP1B1-expressing HEK293 cell; type: functional, cell-based
T4 sequence (Q9Y6L6 whole entry): T1 sequence (Q9Y6L6 whole entry)

[5] = molecular target: T4, Solute carrier organic anion transporter family member 1B1; assay: TP_TRANSPORTER: uptake of SN-38 at a concentration of 0.16uL/oocyte in Xenopus laevis oocytes; type: functional, cell-based
[6] = molecular target: T4, Solute carrier organic anion transporter family member 1B1; assay: TP_TRANSPORTER: inhibition of E1S uptake (SN38 10 u M) in OATP1B1-expressing HEK293 cells; type: functional, cell-based; design: scale not given: the % may be the effect or the level left; conditions: hek293, 10 µM
[7] = molecular target: T4, Solute carrier organic anion transporter family member 1B1; assay: TP_TRANSPORTER: uptake in OATP1B1-expressing HEK293 cells; type: functional, cell-based
[8] = molecular target: T5, Solute carrier organic anion transporter family member 2B1 (Homo sapiens, UniProt O94956); assay: TP_TRANSPORTER: uptake of SN-38 at a concentration of 0.10uL/oocyte in Xenopus laevis oocytes; type: functional, cell-based
T5 sequence (O94956 whole entry): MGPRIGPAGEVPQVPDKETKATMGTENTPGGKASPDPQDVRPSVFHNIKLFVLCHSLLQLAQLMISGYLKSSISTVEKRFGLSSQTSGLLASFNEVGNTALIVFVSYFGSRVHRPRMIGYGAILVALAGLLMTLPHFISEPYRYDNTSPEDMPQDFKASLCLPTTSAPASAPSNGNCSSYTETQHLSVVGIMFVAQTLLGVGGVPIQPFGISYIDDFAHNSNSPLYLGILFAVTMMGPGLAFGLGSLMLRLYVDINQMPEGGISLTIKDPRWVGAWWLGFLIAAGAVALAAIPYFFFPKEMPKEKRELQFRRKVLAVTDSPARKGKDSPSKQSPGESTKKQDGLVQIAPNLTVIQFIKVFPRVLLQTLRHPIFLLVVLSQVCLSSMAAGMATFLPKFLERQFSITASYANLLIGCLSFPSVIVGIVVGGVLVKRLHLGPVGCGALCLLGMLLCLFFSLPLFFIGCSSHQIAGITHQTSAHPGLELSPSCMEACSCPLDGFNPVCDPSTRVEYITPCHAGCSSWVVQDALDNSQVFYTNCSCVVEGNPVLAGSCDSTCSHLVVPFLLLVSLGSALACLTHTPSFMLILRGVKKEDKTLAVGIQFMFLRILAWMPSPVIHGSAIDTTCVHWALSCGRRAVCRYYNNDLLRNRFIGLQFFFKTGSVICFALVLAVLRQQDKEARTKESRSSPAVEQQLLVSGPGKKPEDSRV

[9] = molecular target: T1, OATP-C (OATP1B1, SLCO1B1); assay: TP_TRANSPORTER: inhibition of estrone-3-sulfate uptake (Estrone-3-sulfate: 9.2 nM) by Rosiglitazone at a concentration of 10uM in OATP-C-expressing Xenopus oocytes; type: functional, cell-based, Oocyte; conditions: xenopus laevis, probe estrone-3-sulfate
OATP1B1 (SLCO1B1) [10] = molecular target: T2, OATP1B1 (SLCO1B1); assay: TP_TRANSPORTER: inhibition of E1S uptake (irinotecan 10 u M) in OATP1B1-expressing HEK293 cells; type: functional, cell-based; design: scale not given: the % may be the effect or the level left; conditions: HEK293 cells expressing OATP1B1, probe estrone-3-sulfate (E1S), read-out: Activity
[11] = molecular target: T1, OATP-C (OATP1B1, SLCO1B1); assay: TP_TRANSPORTER: inhibition of estrone-3-sulfate uptake (Estrone-3-sulfate: 9.2 nM) by Quinone Form at a concentration of 10uM in OATP-C-expressing Xenopus oocytes; type: functional, cell-based, Oocyte; conditions: xenopus laevis, probe estrone-3-sulfate
OATP8 (OATP1B3, SLCO1B3) [12] = molecular target: T6, OATP8 (OATP1B3, SLCO1B3) (Homo sapiens, UniProt Q9NPD5); assay: TP_TRANSPORTER: inhibition of estrone-3-sulfate uptake (Estrone-3-sulfate: 9.2 nM) by Quinone Form at a concentration of 10uM in OATP8-expressing Xenopus oocytes; type: functional, cell-based, Oocyte; conditions: xenopus laevis, Xenopus laevis oocytes expressing OATP8, probe estrone-3-sulfate
T6 sequence (Q9NPD5 whole entry): T3 sequence (Q9NPD5 whole entry)

[13] = molecular target: T1, OATP-C (OATP1B1, SLCO1B1); assay: TP_TRANSPORTER: inhibition of estrone-3-sulfate uptake (Estrone-3-sulfate: 9.2 nM) by Pioglitazone at a concentration of 10uM in OATP-C-expressing Xenopus oocytes; type: functional, cell-based, Oocyte; conditions: xenopus laevis, probe estrone-3-sulfate
OATP8 (OATP1B3, SLCO1B3) [14] = molecular target: T6, OATP8 (OATP1B3, SLCO1B3); assay: TP_TRANSPORTER: inhibition of estrone-3-sulfate uptake (Estrone-3-sulfate: 9.2 nM) by Pioglitazone at a concentration of 10uM in OATP8-expressing Xenopus oocytes; type: functional, cell-based, Oocyte; conditions: xenopus laevis, Xenopus laevis oocytes expressing OATP8, probe estrone-3-sulfate
[15] = molecular target: T4, Solute carrier organic anion transporter family member 1B1; assay: TP_TRANSPORTER: cell accumulation in OATP-C-expressing Xenopus oocytes; type: functional, cell-based; conditions: xenopus laevis, oocyte
[16] = molecular target: T3, Solute carrier organic anion transporter family member 1B3; assay: TP_TRANSPORTER: cell accumulation in OATP8-expressing Xenopus oocytes; type: functional, cell-based; conditions: xenopus laevis, oocyte
[17] = molecular target: T4, Solute carrier organic anion transporter family member 1B1; assay: TP_TRANSPORTER: inhibition of E1S uptake (SN38 G 10 u M) in OATP1B1-expressing HEK293 cells; type: functional, cell-based; conditions: hek293, 10 µM
OATP8 (OATP1B3, SLCO1B3) [18] = molecular target: T6, OATP8 (OATP1B3, SLCO1B3); assay: TP_TRANSPORTER: inhibition of estrone-3-sulfate uptake (Estrone-3-sulfate: 9.2 nM) by Troglitazone sulfate at a concentration of 10uM in OATP8-expressing Xenopus oocytes; type: functional, cell-based, Oocyte; conditions: xenopus laevis, Xenopus laevis oocytes expressing OATP8, probe estrone-3-sulfate
[19] = molecular target: T1, OATP-C (OATP1B1, SLCO1B1); assay: TP_TRANSPORTER: inhibition of estrone-3-sulfate uptake (Estrone-3-sulfate: 9.2 nM) by Troglitazone sulfate at a concentration of 10uM in OATP-C-expressing Xenopus oocytes; type: functional, cell-based, Oocyte; conditions: xenopus laevis, probe estrone-3-sulfate
[20] = molecular target: T1, OATP-C (OATP1B1, SLCO1B1); assay: TP_TRANSPORTER: inhibition of estrone-3-sulfate uptake (Estrone-3-sulfate: 9.2 nM) by Troglitazone glucuronide at a concentration of 10uM in OATP-C-expressing Xenopus oocytes; type: functional, cell-based, Oocyte; conditions: xenopus laevis, probe estrone-3-sulfate

Cc1c(C)c2c(c(C)c1O)CCC(C)(COc1ccc(CC3SC(=O)NC3=O)cc1)O2 (stereo not given) [TROGLITAZONE]
inhibition at 10 µM [1]: 35%

CCc1c2c(nc3ccc(O)cc13)-c1cc3c(c(=O)n1C2)COC(=O)[C@]3(O)CC [7-ETHYL-10-HYDROXYCAMPTOTHECIN]
Activity (OATP1B1 (SLCO1B1) [2]): 85% | Activity [3]: is not a substrate [-] | Activity [4]: substrate [+] | Activity [5]: substrate [+] | Activity [6]: 50% | Activity [7]: substrate [] | Activity [8]: is not a substrate [-]

CN(CCOc1ccc(CC2SC(=O)NC2=O)cc1)c1ccccn1 (stereo not given) [ROSIGLITAZONE]
inhibition at 10 µM [9]: 60%

CCc1c2c(nc3ccc(OC(=O)N4CCC(N5CCCCC5)CC4)cc13)-c1cc3c(c(=O)n1C2)COC(=O)[C@]3(O)CC [IRINOTECAN]
Activity (OATP1B1 (SLCO1B1) [2]): 60% | Activity [4]: is not a substrate [-] | activity at 10 µM (OATP1B1 (SLCO1B1) [10]): 60%

CC1=CC(=O)C(C)=C(CCC(C)(C)COc2ccc(CC3SC(=O)NC3=O)cc2)C1=O (stereo not given) [QUINONE FORM]
inhibition at 10 µM [11]: 20% | inhibition at 10 µM (OATP8 (OATP1B3, SLCO1B3) [12]): 60%

CCc1ccc(CCOc2ccc(CC3SC(=O)NC3=O)cc2)nc1 (stereo not given) [PIOGLITAZONE]
inhibition at 10 µM [13]: 70% | inhibition at 10 µM (OATP8 (OATP1B3, SLCO1B3) [14]): 65%

C[C@]12CC[C@@H]3c4ccc(OS(=O)(=O)O)cc4CC[C@H]3[C@@H]1CCC2=O [ESTRONE SULFURIC ACID]
Activity [15]: substrate [] | Activity [16]: substrate []

CCc1c2c(nc3ccc(OC[C@@H]4O[C@H](C(=O)O)[C@@H](O)[C@H](O)[C@H]4O)cc13)-c1cc3c(c(=O)n1C2)COC(=O)[C@]3(O)CC
Activity (OATP1B1 (SLCO1B1) [2]): 45% | Activity [4]: is not a substrate [-] | Activity [17]: is not an inhibitor [-]

Cc1c(C)c2c(c(C)c1OS(=O)(=O)O)CCC(C)(COc1ccc(CC3SC(=O)NC3=O)cc1)O2 (stereo not given) [TROGLITAZONE SULFATE]
inhibition at 10 µM (OATP8 (OATP1B3, SLCO1B3) [18]): 20% | Activity [15]: substrate [] | inhibition at 10 µM [19]: 5%

Cc1c(C)c2c(c(C)c1O[C@@H]1O[C@H](C(=O)O)[C@@H](O)[C@H](O)[C@H]1O)CCC(C)(COc1ccc(CC3SC(=O)NC3=O)cc1)O2 (stereo not given in full) [TROGLITAZONE GLUCURONIDE]
inhibition at 10 µM [20]: 30%
